Laboratory results taken from patent publication US5061711A, “Method of curing liver diseases by using pyrrolo quinoline quinone triesters and novel pyrrolo quinoline quinone triesters” (Mitsubishi Gas Chemical Company, Inc., priority 1989, dated 1991).
Like-named read-outs stand apart in the source and are kept apart here.

Tests used:
male mice SPF-ICR = assay: Acute toxicity test; conditions: mouse, in vivo, ip
Procedure: To male mice SPF-ICR five weeks old (supplied by Japan Charles River Co.) were intraperitoneally administered PQQ.2Na, PQQ trimethyl ester and PQQ triallyl ester at dosages of 40, 80, 160 and 200 mg per kg of body weight of mouse, respectively and they were bred for 14 days at 25° C. One group consisted of 8 mice. For administration, PQQ.2Na was dissolved in physiological saline and PQQ trimethyl ester and PQQ triallyl ester were suspended in 1%Tween 80-containing physiological saline, respectively.

mice [1] = assay: Kidney toxicity determined by blood examination; format: in vivo, mouse; conditions: mouse, in vivo, ip
Procedure: (3) Kidney toxicity determined by blood examination:
After lapse of one day from the administration, the mice were fasted (only water was given) and then after 18 hours, blood was collected and serum was obtained therefrom. Glucose, urea nitrogen and creatinine in the serum were examined by clinical examination reagent (trademark: FUJI DRYCHEMSLIDE manufactured by Fuji Photo Film Co., Ltd.). The results are shown by average value of eight mice in Table 3.

mice [2] = assay: Kidney toxicity determined by urine test; format: in vivo, mouse; conditions: mouse, in vivo, ip
Procedure: (2) Kidney toxicity determined by urine test
PQQ.2Na, PQQ trimethyl ester and PQQ triallyl ester were intraperitoneally administered to mice and they were bred in the same manner as in the above acute toxicity test. The doses per kg of body weight of mouse were 20, 40 and 80 mg for PQQ.2Na and 20, 40, 80, 160 and 200 mg for PQQ triesters. Urine was collected every day and glucose concentration was examined using clinical examination reagent (trademark: […] II manufactured by Miles.Sankyo Co.).

[3] = bovine, not told, 960 min
Procedure: Each compound dissolved in 10 mM HEPES buffer (containing 1%DMSO in the case of PQQ triesters) was put in an apparatus for measurement of membrane permeation constant and left to stand for 16 hours at 35 ° C. and then amount of the compound which migrated was measured by ultraviolet absorption (243 nm for PQQ 2Na and 255 nm for PQQ triester) to obtain membrane permeation constant.

Solubility = format: physicochemical
liver diseases = conditions: cited from earlier work
kidney = conditions: Watanabe et al 1989; cited from earlier work

For `O=C(O)c1cc(C(=O)O)c2c(n1)C(=O)C(=O)c1cc(C(=O)O)[nH]c1-2` [PQQ.2Na, reference compound], the mice died (male mice SPF-ICR; 40 mg/kg) was “No mice died”, the mice died (male mice SPF-ICR; 80 mg/kg) was “five mice died” and the mice died (male mice SPF-ICR; 160 mg/kg) was “eight mice all died”. The mice died (male mice SPF-ICR; 200 mg/kg) was “eight mice all died”, the “creatinine in serum (in words)” value (mice [1]) was “much increase” and the “glucose in serum (in words)” value (mice [1]) was “Sharp reduction”. The “kidney toxicity (in words)” value (mice [1]) was “kidney toxicity was observed”, the “urea nitrogen in serum (in words)” value (mice [1]) was “much increase” and the Creatinine in serum (mice [1]; 20 mg/kg) was 0.5 mg/dL. The Glucose in serum (mice [1]; 20 mg/kg) was 70 mg/dL, the “Urea nitrogen in serum” value (mice [1]; 20 mg/kg) was 21 mg/dL and the Creatinine in serum (mice [1]; 40 mg/kg) was 2.3 mg/dL. The Glucose in serum (mice [1]; 40 mg/kg) was 60 mg/dL, the “Urea nitrogen in serum” value (mice [1]; 40 mg/kg) was 110 mg/dL and the Creatinine in serum (mice [1]; 80 mg/kg) was 3.4 mg/dL. For the same compound, the Glucose in serum (mice [1]; 80 mg/kg) was 57 mg/dL, the “Urea nitrogen in serum” value (mice [1]; 80 mg/kg) was 130 mg/dL and the Creatinine in serum (mice [1]; 160 mg/kg) was 4.2 mg/dL. The Glucose in serum (mice [1]; 160 mg/kg) was 35 mg/dL, the “Urea nitrogen in serum” value (mice [1]; 160 mg/kg) was 139 mg/dL and the “glucose in urine (in words)” value (mice [2]) was “glucose was detected”. The glucose in urine (mice [2]; 20 mg/kg) was “-”, the glucose in urine (mice [2]; 40 mg/kg) was “-” and the glucose in urine (mice [2]; 80 mg/kg) was “-”. The Membrane permeation constant [3] was 0.68 ± 0.36 10^-7 cm^2 · sec^-1.
With `O=C(OCc1ccccc1)c1cc(C(=O)OCc2ccccc2)c2c(n1)C(=O)C(=O)c1cc(C(=O)OCc3ccccc3)[nH]c1-2` [PQQ tribenzyl ester] the Solubility (Solubility; acetone) was “Very soluble”, the Solubility (Solubility; chloroform) was “Very soluble” and the Solubility (Solubility; ethanol) was “Very soluble”. The Solubility (Solubility; methanol) was “Very soluble” and the Solubility (Solubility; water) was “hardly soluble”.
With `CCOC(=O)c1cc(C(=O)OCC)c2c(n1)C(=O)C(=O)c1cc(C(=O)OCC)[nH]c1-2` [PQQ triethyl ester] the Membrane permeation constant [3] was 1.22 ± 0.37 10^-7 cm^2 · sec^-1 and the “membrane permeation constant relative to that of PQQ.2Na” value [3] was “about 2 times”.
In the case of `O=C(O)c1cc(C(=O)O)c2c(n1)C(=O)C(=O)c1cc(C(=O)O)[nH]c1-2` [PQQ, pyrrolo quinoline quinone], the “kidney toxicity by urine test (in words)” value (mice [2]) is listed as “showed kidney toxicity”, the “inhibition of liver diseases” value (liver diseases; administered intraperitoneally, Japanese Patent Kokai No. 63-192717) is listed as “inhibit liver diseases” and the “inhibition of liver diseases” value (liver diseases; orally administered, Watanabe et al 1988) is listed as “not observed”. For the same compound, the kidney toxicity (kidney) was “has kidney toxicity”.
